Data from patent publication US12201649B2, “Pharmaceutical composition comprising oxidizable biphenol and manganese porphyrin, and method of using the same” (Villanova University, priority 2021, dated 2025).
Read-outs that look alike come from different tables or passages of the source.

Key:
[1] = tested on: MDA-MB-231 breast cancer cells; settings: 24 hours; for efficacy at killing breast cancer cells compared with MnTM4PyP: when combined with tBHQ
Jurkat cells [2] = experiment: apoptosis (Annexin-PE) and necrosis (RedDot 2) by flow cytometry, 4 hours; type: cell-based, human; settings: for effect on Jurkat cells (alive, apoptotic, necrotic): 4 hours
Experimental: Referring to FIGS. 4, 5, 6, 8, 12 and 15, cells were treated with the indicated compounds or vehicle for 4 hours in RPMI medium with 10% fetal bovine serum (FBS). RPMI medium, also known as RPMI 1640, is a growth medium used in cell culture. In these and other figures, “vehicle” represents when a treatment compound is omitted and replaced with the vehicle that the compound is dissolved in. Thus, when a MnP is omitted, water is added in its place. When an oxidizable phenol is omitted, DMSO is added for a resulting final concentration in the cell media of 0.05% DMSO. Apoptosis was measured using Annexin-PE, and necrosis was measured with RedDot 2. Fluorescence was read on an Accuri C6 flow cytometer with excitation from a 488 nm laser, and FL2 and FL4 filters were used for Annexin-PE and RedDot2, respectively. 10,000 events were acquired. Flow cytometry data was analyzed using Flowlogic software from Inivai Technologies of Australia. […] Percentage of alive, apoptotic, or necrotic cells was determined and graphed as the average±the standard deviation.
The combination of tBHQ and MnTMPyP is toxic to Jurkat cells, a CD4+ T-cell leukemic cell line. […] Cells that were alive, apoptotic or necrotic were determined using flow cytometry. Two specimens (biological duplicates) were measured for each sample.
Cells that were alive, apoptotic or necrotic were determined using flow cytometry, with n=2 (biological duplicates).
Referring to FIG. 12, unlike tBHQ, dtBHQ has no toxicity to Jurkat cells in combination with MnTMPyP. […] Cells that were alive, apoptotic or necrotic were determined using flow cytometry, with n=2 (biological duplicates).
Referring to FIG. 15, Jurkat cell death upon exposure to MNTE-2-PyP and MnTNBuOE-2-PyP (labelled as Mn2E and Mn2BuOE, respectively, in FIG. 15) are compared with that of exposure to Mn4M. […] Cells that were alive, apoptotic or necrotic were determined using flow cytometry, with n=2 (technical duplicates).
Jurkat cells were treated with 5 mM ascorbic acid or 5 μM tBHQ with or without 12 μM MnTMPyP for 4 h. Apoptosis was measured using Annexin-PE, necrosis with RedDot 2. […]

NALM6 cells = experiment: as above; type: cell-based; settings: tBHQ or 12 μM MnTMPyP alone
[3] = tested on: PC3 prostate cancer cells; experiment: cells; settings: 24 h
[4] = tested on: MDA-MB-231 breast cancer cells; experiment: cells; settings: Homo sapiens, MDA-MB-231, 24 h
Jurkat cells [5] = experiment: cells; settings: Homo sapiens, 24 h
Experimental: Referring to FIG. 16, Jurkat cells were treated with the indicated compounds for 24 hours in RPMI with 2% FBS. Live cells were measured using the CellTiter-Fluor dye, which enters living cells and is cleaved by intracellular proteases to release the fluorescent coumarin molecule. Fluorescence was measured on a ClarioStar Plus plate reader in a 96-well plate format with excitation at 390 nm and emission capture at 505 nm. […] Data are graphed as the average±the standard error, along with the fit.
The relative number of viable cells in a sample was determined using CellTiter-Fluor dye with relative fluorescence units (RFU). […] The LC50 value for a compound is the concentration required to kill half of the cells tested after a specified test duration such as 24 hours.

[6] = read-out: LC50 for tBHQ in the presence of Mn2BuOE

## CCCCOCC[n+]1ccccc1-c1c2nc(c(-c3cccc[n+]3CCOCCCC)c3ccc([nH]3)c(-c3cccc[n+]3CCOCCCC)c3nc(c(-c4cccc[n+]4CCOCCCC)c4ccc1[nH]4)C=C3)C=C2.[Mn+3] [Mn2BuOE]
[1]
  efficacy at killing breast cancer cells compared with MnTM4PyP: higher efficacy
[1]; with 20 μM tBHQ
  concentration at which Mn2BuOE is active: less than 1 μM
[1]; without tBHQ, tested concentrations
  toxicity of Mn2BuOE alone: not toxic at tested concentrations
Jurkat cells [2]; in combination with 5 μM tBHQ, four hours
  effectiveness at 1.2 μM versus 12 μM: almost as effective at 1.2 μM as it was at 12 μM

## CC[n+]1ccccc1-c1c2nc(c(-c3cccc[n+]3CC)c3ccc([n-]3)c(-c3cccc[n+]3CC)c3nc(c(-c4cccc[n+]4CC)c4ccc1[n-]4)C=C3)C=C2.[Mn+3] [Mn2TE2]
[1]
  efficacy at killing breast cancer cells compared with MnTM4PyP: higher efficacy

## C[n+]1ccc(-c2c3nc(c(-c4cc[n+](C)cc4)c4ccc([nH]4)c(-c4cc[n+](C)cc4)c4nc(c(-c5cc[n+](C)cc5)c5ccc2[nH]5)C=C4)C=C3)cc1.[Mn+3] [MnTMPyP, Mn(III)tetrakis(1-methyl-4-pyridyl)porphyrin]
Jurkat cells [2]; 12 μM MnTMPyP alone
  effect on Jurkat cells (alive, apoptotic, necrotic): largely unaffected
NALM6 cells
  toxicity to NALM6 cells, compound individually: low toxicity

## CC(C)(C)c1cc(O)ccc1O [tBHQ, tert-butylhydroquinone]
[3]; read-out: LC50 for tBHQ alone
  CC50: > 100 µM
[3]; [6]
  CC50: 16 ± 7 µM
[1]; at 100 μM tBHQ
  toxicity of tBHQ alone: no toxicity observed
[4]; read-out: LC50 for tBHQ alone
  CC50: > 100 µM
[4]; read-out: LC50 for tBHQ in the presence of MnTMPyP
  CC50: 20 µM
Jurkat cells [2]; 5 μM to 20 μM tBHQ alone
  effect on Jurkat cells (alive, apoptotic, necrotic): largely unaffected
Jurkat cells [5]; read-out: LC50 for tBHQ alone
  CC50: 80 ± 30 µM
Jurkat cells [5]; [6]
  CC50: 1.29 ± 0.04 µM
NALM6 cells
  toxicity to NALM6 cells, compound individually: low toxicity
